Experimental data: US20090156646A1, “PYRIDYLPHENOL COMPOUND AND USE THEREOF” (TAKEDA PHARMACEUTICAL COMPANY LIMITED, priority 2005, published 2009)

Assays:
[1] = target: T1, human metastin receptor hOT7T175 (Homo sapiens, UniProt Q969F8, L364H); experiment: binding inhibiting activity: 125I-metastin (40-54) binding to cell membrane fraction of h175 KB34 cells; conditions: room temperature 60 minutes, read-out: binding inhibiting activity, represented by the IC50 value
T1 construct: encoding the entire length of human metastin receptor hOT7T175; expressed in transfected cells; host or cells: CHO/dhFr- cells (ATCC #CRL-9096) stably transfected with pAKKO-hOT7T175; clone h175-16 was used as whole cells for FLIPR
T1 sequence (Q969F8 whole entry L364H): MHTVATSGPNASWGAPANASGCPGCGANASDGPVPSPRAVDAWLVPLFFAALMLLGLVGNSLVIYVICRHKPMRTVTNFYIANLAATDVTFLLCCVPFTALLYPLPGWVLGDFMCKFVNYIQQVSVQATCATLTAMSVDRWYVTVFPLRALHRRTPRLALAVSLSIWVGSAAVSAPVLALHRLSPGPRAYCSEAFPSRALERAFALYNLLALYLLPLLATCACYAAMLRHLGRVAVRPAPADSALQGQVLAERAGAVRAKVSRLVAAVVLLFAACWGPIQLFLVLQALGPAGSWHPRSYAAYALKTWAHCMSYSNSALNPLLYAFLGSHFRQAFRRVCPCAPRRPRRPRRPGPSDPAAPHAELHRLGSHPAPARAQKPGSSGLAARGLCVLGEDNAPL
How it was run: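 Membranes came from CHO/dhfr− cells stably expressing human hOT7T175 (clone h175 KB34) and were diluted 250-fold for use. Binding of 125I-metastin (40-54) was run in 20 mM Tris, 2.5 mM magnesium acetate and 2 mM EGTA, pH 7.4, with protease inhibitors, either without BSA or with 1 mg/ml BSA.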

Row | SMILES | IC50 [1] | melting point
1 | CCN(CC)CC(=O)Nc1cccc(-c2cc(-c3ccc(F)cc3O)nc(NC(=O)c3ccco3)c2C#N)c1.Cl [Example 315, N-[3-cyano-4-{3-[(N,N-diethylglycyl)amino]phenyl}-6-(4-fluoro-2-hydroxyphenyl)pyridin-2-yl]-2-furamide hydrochloride] | ≤ 10 µM | 262 to 263 °C
2 | CCN(C)CCC(=O)Nc1cccc(-c2cc(-c3ccc(F)cc3O)nc(NC(=O)c3ccco3)c2C#N)c1.Cl [Example 316, N-[3-cyano-4-{3-[(N-ethyl-N-methyl-β-alanyl)amino]phenyl}-6-(4-fluoro-2-hydroxyphenyl)pyridin-2-yl]-2-furamide hydrochloride] | ≤ 10 µM | 223 to 224 °C
3 | CCCN(CCC)C(C)CC(=O)Nc1cccc(-c2cc(-c3ccc(F)cc3O)nc(NC(=O)c3ccco3)c2C#N)c1.Cl (stereo not shown) [Example 318, N-[3-cyano-4-(3-{[3-(dipropylamino)butanoyl]amino}phenyl)-6-(4-fluoro-2-hydroxyphenyl)pyridin-2-yl]-2-furamide hydrochloride] | ≤ 10 µM | 198 to 200 °C
4 | CCC(CC(=O)Nc1cccc(-c2cc(-c3ccc(F)cc3O)nc(NC(=O)c3ccco3)c2C#N)c1)N(CC)CC.Cl (stereo not shown) [Example 319, N-[3-cyano-4-(3-{[3-(diethylamino)pentanoyl]amino}phenyl)-6-(4-fluoro-2-hydroxyphenyl)pyridin-2-yl]-2-furamide hydrochloride] | ≤ 10 µM | 171 to 175 °C
5 | CCNC(C)CC(=O)Nc1cccc(-c2cc(-c3ccc(F)cc3O)nc(NC(=O)c3ccco3)c2C#N)c1.Cl (stereo not shown) [Example 320, N-[3-cyano-4-(3-{[3-(ethylamino)butanoyl]amino}phenyl)-6-(4-fluoro-2-hydroxyphenyl)pyridin-2-yl]-2-furamide hydrochloride] | ≤ 10 µM | 249 to 255 °C

Next, values leading:

Row | IC50 [1] | melting point | SMILES
6 | ≤ 10 µM | 197 to 199 °C | CC(C)NC(C)CC(=O)Nc1cccc(-c2cc(-c3ccc(F)cc3O)nc(NC(=O)c3ccco3)c2C#N)c1.Cl (stereo not shown) [Example 321, N-[3-cyano-6-(4-fluoro-2-hydroxyphenyl)-4-(3-{[3-(isopropylamino)butanoyl]amino}phenyl)pyridin-2-yl]-2-furamide hydrochloride]
7 | ≤ 10 µM | 201 to 203 °C | CCN1CCCCC1CC(=O)Nc1cccc(-c2cc(-c3ccc(F)cc3O)nc(NC(=O)c3ccco3)c2C#N)c1.Cl (stereo not shown) [Example 322, N-[3-cyano-4-(3-{[(1-ethylpiperidin-2-yl)acetyl]amino}phenyl)-6-(4-fluoro-2-hydroxyphenyl)pyridin-2-yl]-2-furamide hydrochloride]
8 | ≤ 10 µM | 254 to 259 °C | Cl.N#Cc1c(-c2cccc(N3CCCNCC3)c2)cc(-c2ccc(F)cc2O)nc1NC(=O)c1ccco1 [Example 326, N-[3-cyano-4-[3-(1,4-diazepan-1-yl)phenyl]-6-(4-fluoro-2-hydroxyphenyl)pyridin-2-yl]-2-furamide hydrochloride]
9 | ≤ 10 µM | 254 to 259 °C | CN1CCN(c2cccc(-c3cc(-c4ccc(F)cc4O)nc(NC(=O)c4ccco4)c3C#N)c2)CC1.Cl [Example 327, N-{3-cyano-6-(4-fluoro-2-hydroxyphenyl)-4-[3-(4-methylpiperazin-1-yl)phenyl]pyridin-2-yl}-2-furamide hydrochloride]
10 | ≤ 10 µM | 209 to 213 °C | CCN(CC)CCC(=O)Nc1cccc(-c2cc(-c3ccc(F)cc3O)nc(NC(=O)c3ccco3)c2C#N)c1.Cl [Example 328, N-[3-cyano-4-{3-[(N,N-diethyl-β-alanyl)amino]phenyl}-6-(4-fluoro-2-hydroxyphenyl)pyridin-2-yl]-2-furamide hydrochloride]
11 | ≤ 10 µM | 229 to 236 °C | Cl.N#Cc1c(-c2cccc(NC(=O)CN)c2)cc(-c2ccc(F)cc2O)nc1NC(=O)c1ccco1 [Example 329, N-{3-cyano-6-(4-fluoro-2-hydroxyphenyl)-4-[3-(glycylamino)phenyl]pyridin-2-yl}-2-furamide hydrochloride]
